We go through 1 compound from patent US6849645B2, “Method of increased bioavailability of nutrients and pharmaceutical preparations with tetrahydropiperine and its analogues and derivatives” (priority 2000, dated 2005).

Entries after “also recorded” stand apart in the source; their conditions may differ.

A short description of data set [1]: Franz diffusion cell, in vitro transdermal permeation of Forskolin with or without tetrahydropiperine. Conditions: for Increase in release (% of Forskolin): with THP vs control. In kind it is in vitro ADME, rat. The protocol:
In vitro permeation studies of Forskholin, a diterpenoid compound which has various therapeutic effects (Bronchodilation—used in Asthma, prevents platelet aggregation, anti hypertensive, anti glaucoma and anti-inflammatory) was carried out. Fabricated Franz diffusion cells of capacity 67 and 69 ml were used for the study. Freshly excised rat abdominal skin was used for the permeation studies.
Solutions Used in the Study • a) 2.5% Forskolin in methanol. • b) 0.05% Tetrahydropiperine in 2.5% Forskolin in methanol. • c) 0.1% Tetrahydropiperine in 2.5% Forskolin in methanol. Procedure
Freshly excised rat abdominal […] was mounted on the Franz diffusion Cell, the outer layer of the skin facing the donor compartment. The receptor fluid was maintained at 35° C. using a thermostatic magnetic stirrer.
The study was conducted by replacing the medium in the receptor compartment with methanol instead of phosphate buffer. In both the receptor and donor compartment methanol was used as the medium in the permeation studies.
In the donor compartment 2 ml methanol containing 50 mg of Forskolin and tetrahydropiperine (5% of Forskolin conc.) was taken. Receptor compartment consisted of 69 ml of methanol maintained at 35° C. Permeation study was carried out for a period of 1 hr. Samples were withdrawn at 15, 30 and 60 minutes intervals and the amount of Forskholin present was analyzed by HPLC.
In the donor compartment 2 ml methanol containing 50 mg of Forskholin was taken. Receptor compartment consisted of 65 ml of methanol maintained at 35° C. Permeation study was carried out for a period of 1 hour. Samples were withdrawn at 15, 30 and 60 minutes intervals and the amount of Forskholin present was analyzed by HPLC.

Data set [2] in a line: In vitro DPPH radical scavenging method (THC with or without THP). In kind it is biochemical. The protocol:
The bioenhancing potential of THP on the free-radical scavenging properties of topically applied THC was evaluated. In this in vitro DPPH radical scavenging method, the ability of an anti-oxidant to bind and inactivate the 1,1 diphenyl-2-picrylhydrazyl radical, or DPPH, was measured. DPPH is considered an example of a very stable free radical. The control sample contained 0.01% of THC while active samples contained 0.01% of THC with THP concentrations ranging from 0.1%-0.0001%. Additionally, controls containing various concentrations of THP alone were also tested for DPPH binding.
For orientation: The DPPH test is a chemical assay of radical scavenging.

For data set [3], the system named is tobacco cut worm, Spodoptera litura F. Kind of data set: whole plant or invertebrate. Conditions: 48 hours. The procedure:
The tetrahydropiperine was tested against tobacco cut worm, Spodoptera litura F. to determine its possible increased kill rate when used with Fenvalerate—a synthetic pyrethroid.
• a. Preparation of test solution—0.5 g of the test product was dissolved in 1 ml of Ethanol and made up to 100 ml in standard volumetric flask using suitable emulsifier. This solution contains 5000 ppm a.i. (0.5 percent). Further, serial dilution was made to get 0.25, 0.125 and 0.0625% of the test product. To each of these test solutions, Fenvalerate was added to get 250 ppm of Fenvalerate a.i. in the final volume. For comparison 0.5 percent of Tetrahydropiperine, Ethanol 1.0 percent solution and 250 ppm a.i. of Fenvalerate was used. • b. Bioassay—Laboratory reared 7 day old larvae of tobacco cut worm, Spodoptera litura were used in the experiment. After a series of preliminary tests the concentrations chosen for the experiment were 0.5, 0.25, 0.125 and 0.0625 percent tetrahydropiperine. Fresh castor leaves were dipped for 30 seconds in above concentrations of test and standard compounds and blank solutions. After proper drying, the treated leaves were transferred to plastic containers. To each container 5 larvae were released. This was repeated four times so as to have 20 larvae for each concentration. Larvae in control set were fed with leaves dipped in water. Observations were recorded for larval mortality after 48 hours of exposure. Results

Data set [4] in a line: 48 hour skin patch test for irritation in humans. In kind it is in vivo, human. The procedure: In another aspect of the present invention, a study was conducted to determine whether a topical composition containing THP (98% purity), at a level of 0.01% and 0.1% by weight, which is preferred topical dose range for the compound, would produce symptoms of topical irritation. A skin patch test using THP in a petrolatum vehicle was conducted on 50 healthy volunteers for 48 hr with reading of the results after 48 hr and 72 hr. […] The irritation score was reported by the supervising physician, a practicing dermatologist, as 0. […] Based on previous experience with the parent compound, THP should not irritate the stomach mucosa at dose level of up to 50 mg per os in an adult healthy volunteer.
The 48 hour Repeat Insult Patch Test was used to evaluate skin irritation potential of the test compound.
50 Male or female subjects aged between 18 and 87 years participated in the study. 5 male and 41 female subjects completed the study. The subjects were in good health and using no medications from 30 days prior to the commencement of the study.
The test material was applied occlusively, 0.1% w/w diluted in petrolatum. 0.2 g or 0.2 cc of the test material was dispensed into the skin of the upper back. Paper tape such as 3M Micropore™ or Kendall Tenderskin™ was used for fixation after preparation of the surrounding skin with an adhesion enhancer such as Mastitol™. The subject was instructed to avoid exposure to water or to direct sunlight during the 48 hour observation period. The tape was removed at the test facility at the end of the exposure period and evaluated by trained personnel under the supervision of the principal investigator.
Reactions were scored based on the appearance of erythema or edema immediately following removal of the patch and again at 24 hours following removal. Subjects were instructed to report any delayed reactions occurring after the final reading.

Data set [5] can be described thus: Solubility (specification of THP). It is filed as physicochemical.
Setting [6] is: THP 0.01% and 0.1% by weight in petrolatum, 48 hr patch, read after 48 hr and 72 hr.

On to `O=C(CCCCc1ccc2c(c1)OCO2)N1CCCCC1` [Tetrahydropiperine, 1-[5-(1,3-Benzodioxol-5 yl)-1-oxo-pentanoyl]-Piperidine], for which the “permeation of Forskolin” value is “enhanced” in data set [1] (Tetrahydropiperine 5% of Forskolin concentration) and “enhanced permeation was not observed” in data set [1] (tetrahydropiperine 2% of Forskolin concentration). Further, the “Increase in release (% of Forskolin)” value in data set [1] (15 min) came to 28.12%; in data set [1] (30 min), 39.25%; in data set [1] (60 min) it was 5.09%. The “enhancement of the antioxidant properties of THC as compared to THC alone” value in data set [2] (0.01% THC with THP 0.1%-0.0001%) is “up to 30%”. In addition, the THC bioenhancing activity result in data set [2] (0.01% THC with THP at highest dilution of 0.0001%) is recorded as “still displayed some beneficial THC bioenhancing activity”. The “anti-oxidant properties (DPPH binding)” value in data set [2] (THP alone, various concentrations) is “did not show any significant anti-oxidant properties”. Besides, the “PERCENT MORTALITY (Mean of 4 replications)” value in data set [3] (Tetrahydropiperine 0.0625% + 250 ppm a.i. Fenvalerate) is given as 50%; in data set [3] (Tetrahydropiperine 0.0625% + 250 ppm a.i. Fenvalerate, listed as tetrahydropiperine) it was “did not enhance the activity”; in data set [3] (Tetrahydropiperine 0.125% + 250 ppm a.i. Fenvalerate) it was 65%; in data set [3] (Tetrahydropiperine 0.5% + 250 ppm a.i. Fenvalerate), 100%; in data set [3] (Tetrahydropiperine 0.5% alone), 0%; in data set [3] (Tetrahydropiperine 0.5% alone, listed as tetrahydropiperine) it was “did not show any activity”. For the same compound, the “PERCENT MORTALITY (Mean of 4 replications)” value in data set [3] (Tetrahydropiperine […] + 250 ppm a.i. Fenvalerate) was 85%. In addition, the “skin reaction (erythema, edema, primary contact irritation)” value in data set [4] (0.1% w/w in petrolatum, occlusive, 48 hours exposure) is listed as “No erythema or edema reactions; also recorded: appears not to produce primary (contact) irritation”. In data set [4] (setting [6]), this compound registered an irritation score of 0. For the same compound, the skin irritation entry in data set [4] (setting [6]) is “Neither dose caused skin irritation”. Moreover, the figures for the Solubility result in data set [5] (chloroform), in data set [5] (methanol) and in data set [5] (water) were “Soluble”, “Soluble” and “insoluble”, respectively.
